ChEMBL document CHEMBL5649166, “RIP3 induces apoptosis independent of pronecrotic kinase activity” (Mol Cell, 2014)

Tests used:
[1] = molecular target: T1, Serine/threonine-protein kinase 17A (Homo sapiens) (UniProt Q9UEE5); assay: Inhibition of human DRAK1/STK17A using KKLNRTLSFAEPG as substrate at 1 uM in presence of 32P-ATP by Hotspot assay relative to control; values are per cent of control
T1 sequence (whole entry): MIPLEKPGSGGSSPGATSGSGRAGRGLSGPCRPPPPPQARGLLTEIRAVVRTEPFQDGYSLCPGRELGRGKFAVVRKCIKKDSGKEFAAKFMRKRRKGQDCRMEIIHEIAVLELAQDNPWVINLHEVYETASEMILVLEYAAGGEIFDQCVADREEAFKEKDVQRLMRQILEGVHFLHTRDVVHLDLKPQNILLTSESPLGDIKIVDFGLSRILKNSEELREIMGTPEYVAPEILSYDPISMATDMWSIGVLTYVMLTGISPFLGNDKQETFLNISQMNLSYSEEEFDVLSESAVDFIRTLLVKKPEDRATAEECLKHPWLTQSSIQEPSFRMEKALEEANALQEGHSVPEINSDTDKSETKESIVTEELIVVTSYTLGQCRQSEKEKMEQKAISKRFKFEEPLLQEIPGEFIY

[2] = molecular target: T2, Mitogen-activated protein kinase kinase kinase kinase 2 (Homo sapiens) (UniProt Q12851); assay: Inhibition of human GCK/MAP4K2 using myelin basic protein as substrate at 1 uM in presence of 32P-ATP by Hotspot assay relative to control; values are per cent of control
T2 sequence (whole entry): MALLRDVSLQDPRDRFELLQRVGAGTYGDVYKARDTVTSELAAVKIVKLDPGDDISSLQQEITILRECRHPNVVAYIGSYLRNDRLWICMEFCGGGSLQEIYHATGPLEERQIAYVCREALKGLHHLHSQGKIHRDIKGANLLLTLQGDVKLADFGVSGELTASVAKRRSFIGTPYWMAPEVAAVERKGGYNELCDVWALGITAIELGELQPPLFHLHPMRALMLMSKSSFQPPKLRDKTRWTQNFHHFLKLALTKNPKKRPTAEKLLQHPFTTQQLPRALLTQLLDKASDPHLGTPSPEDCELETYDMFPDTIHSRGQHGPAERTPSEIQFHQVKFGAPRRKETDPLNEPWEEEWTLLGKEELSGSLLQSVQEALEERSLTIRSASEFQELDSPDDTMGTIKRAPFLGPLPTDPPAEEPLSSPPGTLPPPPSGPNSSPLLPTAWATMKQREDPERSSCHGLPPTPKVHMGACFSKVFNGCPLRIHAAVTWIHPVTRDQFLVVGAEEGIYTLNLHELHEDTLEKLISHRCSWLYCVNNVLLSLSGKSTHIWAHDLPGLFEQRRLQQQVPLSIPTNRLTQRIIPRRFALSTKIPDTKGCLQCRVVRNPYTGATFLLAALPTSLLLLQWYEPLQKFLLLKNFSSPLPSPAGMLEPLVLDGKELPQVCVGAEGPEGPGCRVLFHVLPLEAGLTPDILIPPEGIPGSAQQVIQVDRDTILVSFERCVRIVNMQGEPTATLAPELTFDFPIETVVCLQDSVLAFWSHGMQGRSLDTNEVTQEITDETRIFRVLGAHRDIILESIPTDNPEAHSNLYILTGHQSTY

[3] = molecular target: T3, NUAK family SNF1-like kinase 1 (Homo sapiens) (UniProt O60285); assay: Inhibition of human ARK5/NUAK1 using KKKVSRSGLYRSPSMPENLNRPR as substrate at 1 uM in presence of 32P-ATP by Hotspot assay relative to control; values are per cent of control
T3 sequence (whole entry): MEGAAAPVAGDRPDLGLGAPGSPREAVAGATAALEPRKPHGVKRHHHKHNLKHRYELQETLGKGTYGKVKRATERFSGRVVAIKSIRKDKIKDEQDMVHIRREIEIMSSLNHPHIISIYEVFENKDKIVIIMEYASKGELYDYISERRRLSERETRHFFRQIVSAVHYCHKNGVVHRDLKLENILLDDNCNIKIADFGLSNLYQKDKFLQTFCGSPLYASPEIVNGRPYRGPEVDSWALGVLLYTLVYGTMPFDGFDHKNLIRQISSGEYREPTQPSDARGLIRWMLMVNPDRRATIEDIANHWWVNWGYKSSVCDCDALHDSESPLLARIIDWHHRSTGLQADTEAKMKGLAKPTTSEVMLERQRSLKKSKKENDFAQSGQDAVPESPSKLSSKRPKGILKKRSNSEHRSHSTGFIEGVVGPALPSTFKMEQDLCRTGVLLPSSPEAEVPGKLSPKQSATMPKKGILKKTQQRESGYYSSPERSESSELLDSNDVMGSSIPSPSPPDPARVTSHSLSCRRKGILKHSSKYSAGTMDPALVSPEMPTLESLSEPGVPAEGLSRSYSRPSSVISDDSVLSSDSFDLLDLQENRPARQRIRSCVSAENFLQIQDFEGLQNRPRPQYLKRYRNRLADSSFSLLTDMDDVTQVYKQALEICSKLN

[4] = molecular target: Tyrosine-protein kinase receptor UFO (Homo sapiens) (UniProt P30530); assay: Inhibition of human AXL using poly[Glu:Tyr] (4:1) as substrate at 1 uM in presence of 32P-ATP by Hotspot assay relative to control; values are per cent of control
[5] = molecular target: T4, Myotonin-protein kinase (Homo sapiens) (UniProt Q09013); assay: Inhibition of human DMPK using KKRNRRLSVA as substrate at 1 uM in presence of 32P-ATP by Hotspot assay relative to control; values are per cent of control
T4 sequence (whole entry): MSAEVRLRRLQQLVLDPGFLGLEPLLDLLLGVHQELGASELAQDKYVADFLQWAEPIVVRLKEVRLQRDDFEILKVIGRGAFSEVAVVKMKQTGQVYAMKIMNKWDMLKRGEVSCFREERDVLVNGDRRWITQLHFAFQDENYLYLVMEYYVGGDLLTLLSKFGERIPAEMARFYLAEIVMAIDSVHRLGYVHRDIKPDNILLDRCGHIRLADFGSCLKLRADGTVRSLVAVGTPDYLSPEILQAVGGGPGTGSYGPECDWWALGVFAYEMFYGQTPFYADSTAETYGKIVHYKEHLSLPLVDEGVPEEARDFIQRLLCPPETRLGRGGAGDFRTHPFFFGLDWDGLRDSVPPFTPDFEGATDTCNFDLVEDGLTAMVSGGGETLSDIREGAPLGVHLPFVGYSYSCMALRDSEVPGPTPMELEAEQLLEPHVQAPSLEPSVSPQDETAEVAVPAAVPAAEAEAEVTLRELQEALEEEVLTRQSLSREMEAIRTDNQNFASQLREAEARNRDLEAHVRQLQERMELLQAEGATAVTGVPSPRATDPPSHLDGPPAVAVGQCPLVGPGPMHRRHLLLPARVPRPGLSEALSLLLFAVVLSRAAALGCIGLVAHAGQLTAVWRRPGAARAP

Sequence of Tyrosine-protein kinase receptor UFO (Homo sapiens) (P30530 whole entry): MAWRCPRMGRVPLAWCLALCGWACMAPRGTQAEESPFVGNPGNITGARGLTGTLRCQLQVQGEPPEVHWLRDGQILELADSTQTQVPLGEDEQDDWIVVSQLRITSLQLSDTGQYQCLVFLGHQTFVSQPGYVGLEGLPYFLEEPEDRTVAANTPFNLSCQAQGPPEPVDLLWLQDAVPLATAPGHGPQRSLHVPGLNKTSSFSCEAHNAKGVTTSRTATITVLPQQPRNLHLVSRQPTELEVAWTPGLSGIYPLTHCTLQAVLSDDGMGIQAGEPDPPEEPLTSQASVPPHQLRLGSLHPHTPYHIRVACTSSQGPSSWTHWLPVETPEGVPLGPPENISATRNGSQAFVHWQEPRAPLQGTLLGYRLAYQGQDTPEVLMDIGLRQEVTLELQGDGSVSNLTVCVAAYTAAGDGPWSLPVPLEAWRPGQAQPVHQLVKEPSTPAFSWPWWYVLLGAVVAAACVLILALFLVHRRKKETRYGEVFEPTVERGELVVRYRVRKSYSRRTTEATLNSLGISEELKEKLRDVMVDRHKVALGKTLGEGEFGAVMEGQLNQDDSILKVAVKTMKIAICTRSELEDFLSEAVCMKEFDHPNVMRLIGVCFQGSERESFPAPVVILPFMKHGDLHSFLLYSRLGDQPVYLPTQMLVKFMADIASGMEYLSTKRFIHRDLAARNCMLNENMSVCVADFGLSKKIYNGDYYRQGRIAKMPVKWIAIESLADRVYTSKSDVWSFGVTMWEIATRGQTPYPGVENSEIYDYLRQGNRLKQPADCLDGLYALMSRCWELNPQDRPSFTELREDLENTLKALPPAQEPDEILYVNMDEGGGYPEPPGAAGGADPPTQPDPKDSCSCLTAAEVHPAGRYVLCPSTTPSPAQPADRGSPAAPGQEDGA

Compound | residual activity [1] [%] | residual activity [2] [%] | residual activity [3] [%] | residual activity [4] [%] | residual activity [5] [%]
CC(C)S(=O)(=O)c1ccc2nccc(Nc3ccc4scnc4c3)c2c1 | 99 | 88.3 | 98.4 | 101 | 103
Cc1cc(-c2cnc(N)c3c(-c4ccc5scnc5c4)csc23)n(C)n1 | 96.8 | 68.1 | 98.5 | 101 | 92.1
CNC(=O)c1ccc2c(c1)ncn2-c1ccc(CC(=O)OC(C)(C)C)cc1 | 98.9 | 91.8 | 91.7 | 92.6 | 107
